We go through 19 molecules from PMC10926205 (iScience, 2024).

Broadly, the EC50 is the midpoint of the concentration-response curve.

Test [1] concerns the target T1, ERα (Homo sapiens, UniProt P03372).
T1 sequence (P03372 1-595): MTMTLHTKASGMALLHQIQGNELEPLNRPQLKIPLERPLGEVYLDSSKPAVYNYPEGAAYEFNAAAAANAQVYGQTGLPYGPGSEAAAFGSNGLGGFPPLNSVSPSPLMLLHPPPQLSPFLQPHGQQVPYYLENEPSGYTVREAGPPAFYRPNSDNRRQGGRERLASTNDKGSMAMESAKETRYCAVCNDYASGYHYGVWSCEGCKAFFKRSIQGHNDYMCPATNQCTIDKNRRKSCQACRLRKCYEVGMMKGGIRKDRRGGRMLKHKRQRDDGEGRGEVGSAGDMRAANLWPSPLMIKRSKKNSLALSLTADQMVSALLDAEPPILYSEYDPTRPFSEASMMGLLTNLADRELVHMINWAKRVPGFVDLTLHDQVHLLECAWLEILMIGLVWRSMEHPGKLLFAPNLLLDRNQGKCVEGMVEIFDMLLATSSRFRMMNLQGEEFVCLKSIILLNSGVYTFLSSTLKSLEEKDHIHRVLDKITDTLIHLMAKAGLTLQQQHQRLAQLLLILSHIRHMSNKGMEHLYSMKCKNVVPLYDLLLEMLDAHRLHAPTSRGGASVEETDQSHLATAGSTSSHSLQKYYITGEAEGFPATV
The test is described as follows: cell-based. In kind it is cell-based. The following applies: for EC50 / PRL-ERα EC50 (nM): array formation (DNA binding), 1 h; for EC50 / PRL-ERα EC50 (nM) / ERα DNA binding and transcription at the 100nM dose: ERα-GFP:PRL-HeLa; for selectivity for either estrogen receptor: ERα vs ERβ array EC50.

In test [2] the target is T2, ERβ (Homo sapiens, UniProt Q92731). The test is described as follows: cell-based. In kind it is cell-based.
T2 sequence (Q92731 whole entry): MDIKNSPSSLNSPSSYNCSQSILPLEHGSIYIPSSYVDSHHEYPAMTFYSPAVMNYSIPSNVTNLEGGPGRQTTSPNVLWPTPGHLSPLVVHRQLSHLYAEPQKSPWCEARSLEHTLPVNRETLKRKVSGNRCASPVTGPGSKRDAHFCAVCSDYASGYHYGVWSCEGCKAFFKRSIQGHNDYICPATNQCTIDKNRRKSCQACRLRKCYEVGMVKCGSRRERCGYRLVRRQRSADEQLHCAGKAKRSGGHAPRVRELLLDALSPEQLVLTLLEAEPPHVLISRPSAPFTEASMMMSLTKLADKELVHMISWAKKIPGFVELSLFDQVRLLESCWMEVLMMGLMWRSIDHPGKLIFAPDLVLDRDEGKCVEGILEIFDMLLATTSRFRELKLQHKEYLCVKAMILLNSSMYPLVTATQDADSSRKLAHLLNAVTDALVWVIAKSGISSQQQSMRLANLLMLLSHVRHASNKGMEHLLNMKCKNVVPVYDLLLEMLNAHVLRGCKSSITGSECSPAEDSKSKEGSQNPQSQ
In test [3] the test system is GREB1. The test is described as follows: GREB1 mRNA expression by qPCR in MCF-7. In kind it is cell-based. The following applies: MCF-7, 24 h; for GREB1 transcription (qPCR) compared to DMSO: E2 1nM, IBV 10nM, PHX, genistein, ±equol 100nM, neobavaisoflavone, bavachin, isobavachalcone, daidzein 1μM.
The test system of another test is MCF-7 cells. Nature of the test: MCF-7 proliferation assay. In kind it is cell-based. The following applies: 120 h; for increase in cell number of MCF-7 cells: compared with DMSO.
Test [4] deals with ERE-GFP reporter in the liver. The test is described as follows: Transgenic zebrafish ERE-GFP reporter, liver. In kind it is in vivo. The following applies: for ERE-GFP activation in the zebrafish (liver or heart): nonlethal doses tested (<100μM); for ER signal (ERE-GFP) in the liver: highest nonlethal doses tested.
The target in test [5] is T3, progesterone receptor (GFP-PR) (Homo sapiens, UniProt P06401).
T3 sequence (P06401 679-933 limits assumed): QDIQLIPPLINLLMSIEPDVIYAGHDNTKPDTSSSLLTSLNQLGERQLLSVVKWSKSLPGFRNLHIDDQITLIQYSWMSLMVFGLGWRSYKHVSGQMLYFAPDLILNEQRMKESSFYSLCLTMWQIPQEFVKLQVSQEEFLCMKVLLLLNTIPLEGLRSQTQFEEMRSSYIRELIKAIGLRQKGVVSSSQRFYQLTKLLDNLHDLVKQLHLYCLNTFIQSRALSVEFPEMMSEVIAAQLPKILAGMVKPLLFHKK
The test is described as follows: GFP-PR PRL array biosensor cell line, array formation. The following applies: 100nM. In kind it is cell-based.

The subject of another test is ERα or ERβ. In kind it is cell-based. The following applies: flavonoid screen, cell line not stated.
Test [6] concerns the target T1, ERα. The test is described as follows: dsRed2 reporter RNA FISH in ERα-GFP:PRL-HeLa. In kind it is cell-based.
Test [7] deals with T2, ERβ. The test is described as follows: dsRed2 reporter RNA FISH in GFP-ERβ:PRL-HeLa. In kind it is cell-based. The following applies: highest dose tested (10μM).
The subject of test [8] is ERE-GFP in the heart valves. The test is described as follows: Transgenic zebrafish ERE-GFP reporter, heart valves. In kind it is in vivo. The following applies: highest nonlethal doses tested.
Test [9] deals with ERα. The following applies: read-out: EC50 for displacement of E2 from ERα in rat uteri; cited from earlier work.
For test [10], the system named is GREB1. Nature of the test: GREB1 smRNA FISH. The following applies: MCF-7, 24 h; E2 1nM, IBV 10 and 100nM, PHX 100nM. In kind it is cell-based.
Where [11] appears, read: array formation (DNA binding), GFP-ERβ:PRL-HeLa, 1 h.
Where [12] appears, read: read-out: PRL-ERβ EC50, array formation (DNA binding), GFP-ERβ:PRL-HeLa, 1 h.

SMILES strings stand for the structures. “Also recorded” adds a separate entry of the source. Like-named read-outs stand apart in the source and are kept apart here.

As to `COc1cc(O)ccc1/C=C/C(=O)c1ccc(O)cc1` [Echinatin], the EC50 on ERα [1] (PRL-ERα EC50 (nM)) was determined as 174 nM; on ERβ [2] it was 69.5 nM. At ERα [1], the “PRL-ERα EC50 (nM)” value is given as “sub-micromolar”. Moreover, at ERβ [2] (setting [11]), the “PRL-ERβ EC50 (nM)” value is recorded as “sub-micromolar”. For the same molecule, the “GREB1 gene expression compared to DMSO and E2” value in the test with GREB1 [3] (compounds 1μM, E2 10nM) is on record as “induced expression to the same level as E2”. Further, the “EC50 in MCF-7 growth assay” value in the test on MCF-7 cells is listed as “sub-micromolar”. For the same molecule, the “ERE-GFP activation in the zebrafish (liver or heart)” value in test [4] is “Neither isosakuranetin, echinatin, nor loureirin A activated the ERE-GFP”.
`CCC(=O)[C@@]1(C)CC[C@H]2[C@@H]3CCC4=CC(=O)CCC4=C3CC[C@@]21C` [R5020]: the “array formation in GFP-PR cell line (controls)” value in test [5] was “successfully induced array formation”.
The same measure, in the same setting: the value for `CC(=O)[C@H]1CC[C@H]2[C@@H]3CCC4=CC(=O)CC[C@]4(C)[C@H]3CC[C@]12C` [P4, progesterone] was “successfully induced array formation”.
Take `CN1CC[C@H](c2c(O)cc(O)c3c(=O)cc(-c4ccccc4Cl)oc23)[C@H](O)C1` [Flavopiridol (Alvocidib), Flavopiridol, reference compound]: the “transcriptional output (dsRed2 FISH) versus DMSO” value in the test with ERα or ERβ is given as “suppressed transcriptional output to a lower level than DMSO”.
Regarding `C=CC(C)(C)c1cc(/C=C/C(=O)c2ccc(O)cc2)c(OC)cc1O` [Licochalcone A], the figures for the EC50 at ERα [1] (read-out: PRL-ERα EC50) and on ERβ [2] (setting [12]) were 508 nM and 92.1 nM, respectively. Moreover, at ERβ [2] (array EC50), the “preference for ERβ compared to ERα” value was 5 fold. Moreover, the “RNA FISH expression in ERα-GFP:PRL-HeLa” value at ERα [6] (highest dose tested (10μM)) is listed as “did not activate RNA FISH expression”. Besides, the “dsRed2 reporter gene activation in GFP-ERβ:PRL-HeLa” value on ERβ [7] is on record as “did activate the dsRed2 reporter gene”.
As for `CC(C)=CCc1c(O)ccc(C(=O)/C=C/c2ccc(O)cc2)c1O` [Isobavachalcone], the “selectivity for either estrogen receptor” value on ERα [1] is greater than 5 fold. The “GREB1 transcription (qPCR) compared to DMSO” value in the test with GREB1 [3] is given as “activation of GREB1 transcription”.
With `CC(C)=CCc1cc2c(cc1O)O[C@H](c1ccc(O)cc1)CC2=O` [Bavachin], at ERα [1], the “selectivity for either estrogen receptor” value was greater than 5 fold. For the same molecule, the “GREB1 transcription (qPCR) compared to DMSO” value in the test with GREB1 [3] is reported as “activation of GREB1 transcription”.
On to `CN1CCC(c2c(O)cc(O)c3c(=O)cc(-c4ccccc4Cl)oc23)C1CO` (stereo not shown) [P276-00], for which the “transcriptional output (dsRed2 FISH) versus DMSO” value in the test on ERα or ERβ is listed as “suppressed transcriptional output to a lower level than DMSO; also recorded: suppressed transcription”. The “gene transcription (dsRed2 RNA FISH) compared to DMSO” value on ERα [6] (10μM, 1 h, hits in ERα-GFP:PRL-HeLa) is “suppress gene transcription”.
`CC(C)=CCc1c(O)ccc2c1O[C@H](c1ccc(O)cc1)CC2=O` [Isobavachin]: the “ERα DNA binding and transcription at the 100nM dose” value (from here on “ERα DNA binding and transcription”) on ERα [1] is “induced ERα DNA binding and transcription”. On ERα [1] (PRL-ERα EC50 (nM)), this molecule registered a concentration giving a half-maximal response (EC50) of 1.28 nM. Besides, the “activity in GFP-ERβ:PRL-HeLa cells at the 100nM dose” value (from here on “activity in GFP-ERβ:PRL-HeLa cells”) at ERβ [2] (100nM) is reported as “also active”.
Take `CN1CC[C@H](c2c(O)cc(O)c3c(=O)cc(-c4ccccc4Cl)oc23)[C@H](O)C1.Cl` [Flavopiridol HCl, reference compound]: the “transcriptional output (dsRed2 FISH) versus DMSO” value with ERα or ERβ is “suppressed transcriptional output to a lower level than DMSO”.
As for `COc1cc(-c2coc3cc(O)c(OC)c(O)c3c2=O)cc(O)c1OC` [Irigenin], the “transcriptional output (dsRed2 FISH) versus DMSO” value in the test with ERα or ERβ is listed as “suppressed transcription”.
In the case of `O=c1c(-c2ccc(O)cc2)coc2cc(O)ccc12` [Daidzein], the “GREB1 transcription (qPCR) compared to DMSO” value in the test with GREB1 [3] is reported as “activation of GREB1 transcription”.
Turning to `COc1ccc(-c2cc(=O)c3c(O)cc(O[C@@H]4O[C@H](CO)[C@@H](O)[C@H](O)[C@H]4O[C@@H]4O[C@@H](C)[C@H](O)[C@@H](O)[C@H]4O)cc3o2)cc1O` [Neodiosmin], at ERα [1], the “ERα DNA binding and transcription” value was “induced ERα DNA binding and transcription”.
`Oc1ccc(C2=Cc3ccc(O)cc3OC2)cc1` [Phenoxodiol (Haginin E), Phenoxodiol]: the “activity in GFP-ERβ:PRL-HeLa cells” value at ERβ [2] is on record as “also active”. For the same molecule, in the test with GREB1 [3], the “GREB1 transcription (qPCR) compared to DMSO” value is “activation of GREB1 transcription”. In test [4], the “ER signal (ERE-GFP) in the liver” value is reported as “activate ER signal”. In addition, the “ER signal (ERE-GFP) in the heart” value in test [8] is reported as “activate ER signal”. In the test on ERα [9], the EC50 was roughly 500 nM.
Take `COc1ccc(CCC(=O)c2ccc(O)cc2)c(OC)c1` [Loureirin A]: on ERα [1], the “PRL-ERα EC50 (nM)” value is “sub-micromolar”. In addition, the EC50 on ERα [1] (read-out: PRL-ERα EC50) is 50 nM. In addition, the “PRL-ERβ EC50 (nM)” value on ERβ [2] (setting [11]) is “sub-micromolar”. For the same molecule, the EC50 at ERβ [2] (setting [12]) came to 76.2 nM. In the test with MCF-7 cells, the “EC50 in MCF-7 growth assay” value is recorded as “sub-micromolar”; the “MCF-7 cell proliferation, reaching the level of E2” value is given as “not able to reach the level of E2”; the “increase in cell number of MCF-7 cells” value turned out to be 50%. The “ERE-GFP activation in the zebrafish (liver or heart)” value in [4] is on record as “Neither isosakuranetin, echinatin, nor loureirin A activated the ERE-GFP”.
`CC(C)=CCc1cc(-c2coc3cc(O)ccc3c2=O)ccc1O` [Neobavaisoflavone]: on ERα [1], the “selectivity for either estrogen receptor” value was greater than 5 fold. The “GREB1 transcription (qPCR) compared to DMSO” value with GREB1 [3] was “activation of GREB1 transcription”.
As to `Oc1ccc([C@H]2COc3cc(O)ccc3C2)cc1` [S-Equol], the “ERα DNA binding and transcription” value at ERα [1] is “induced ERα DNA binding and transcription”. At ERβ [2] (100nM), the “activity in GFP-ERβ:PRL-HeLa cells” value is listed as “also active”.
For the molecule `C[C@]12CC[C@@H]3c4ccc(O)cc4CC[C@H]3[C@@H]1CC[C@@H]2O` [E2, 17β-estradiol, reference compound], the “fraction of cells with a visible array” value on ERβ [2] stood at 75%. In addition, the “induction of transcriptionally active GREB1 alleles” value in the test on GREB1 [10] was “significant induction”. The “GREB1 transcription (qPCR) compared to DMSO” value in the test on GREB1 [3] is reported as “activation of GREB1 transcription”. In the test with MCF-7 cells, the “increase in cell number of MCF-7 cells” value is listed as 150%. Moreover, the “ER signal (ERE-GFP) in the liver” value in [4] was “activate ER signal”. For the same molecule, the “ER signal (ERE-GFP) in the heart” value in test [8] was “activate ER signal”.
As for `O=c1c(-c2ccc(O)cc2)coc2cc(O)cc(O)c12` [Genistein], the “GREB1 transcription (qPCR) compared to DMSO” value in the test on GREB1 [3] is reported as “activation of GREB1 transcription”.
